Data published in paper PMC3923716 (PLoS Neglected Tropical Diseases, 2014).
Where two headings read alike, the source gives them in different places.

Key:
B. pahangi Hsp90 = molecular target: T1, B. pahangi Hsp90 (Brugia pahangi, UniProt O61998); experiment: Competition FP assay (displacement of Cy3B-GA), B. pahangi lysate; type: binding
T1 construct: Adult worms of B. pahangi were obtained from infected jirds; from tissue; host or cells: whole adult B. pahangi worms, ground and lysed in HFB buffer
Protocol: Adult worms of B. pahangi were obtained from infected jirds after 3–4 months, exactly as described previously and were frozen in liquid nitrogen, ground in a pestle and mortar to a fine powder and re-suspended in an appropriate volume of HFB assay buffer (20 mM HEPES, pH 7.3, 50 mM KCl, 5 mM MgCl2, 20 mM Na2MoO4, 1% NP40). Protein concentrations were estimated using the BioRad protein assay. At this point lysates were freeze-dried for shipping to the USA.
(§1) The FP assay was set up essentially as described previously, [25]. […] The equilibrium binding of Cy3B-GA and recombinant human Hsp90α (Enzo Life Sciences, Farmingdale, NY USA) or parasite lysate was determined by creating a two-fold dilution series of protein/extract for an eleven-point curve with the first column containing no protein. […] All FP values are expressed in millipolarization (mP) units with the mP value of free Cy3B-GA probe set to 50. Equilibrium binding constants were determined by nonlinear regression using a one-site binding model (GraphPad Prism software).
(§2) The relative binding affinities of inhibitors to human or parasite-derived Hsp90 was determined using competitive FP binding assays. […] For parasite-derived Hsp90, an amount of parasite lysate resulting in 50% of maximal Cy3B-GA binding was used. […] Stock solutions of each compound were prepared in DMSO at a concentration of 10 mM and 3-fold serial dilutions prepared in DMSO for eleven point curves. […] The final concentration of Cy3B-GA was 6 nM and the final DMSO concentration in all wells was 0.5%. Free Cy3B-GA (mP set to 50) and buffer only (background) wells were included as controls on each plate. Plates were incubated at 8°C with gentle shaking for 20 h.

B. malayi Hsp90 = B. malayi Hsp90 (Brugia malayi, UniProt A0A0H5S7Y7); experiment: Competition FP assay (displacement of Cy3B-GA), B. malayi lysate; type: binding
Protocol: as §1, §2

[1] = test system: B. pahangi Mf (microfilariae); experiment: Mf viability in vitro; type: cell-based, Brugia pahangi; details: for % death by day 7: Mf; for effect of lower concentrations on Mf: concentrations below the killing concentration; for condition of Mf: 250 nM, day 7
Protocol: As adult Brugia worms are limited in numbers, initial experiments assessed the effect of each drug on Mf viability. Mf were purified from infected animals essentially as described previously. In brief, following lavage of the peritoneal cavity of an infected animal with Hanks Balanced Salt Solution (HBSS) pre-warmed to 37°C, Mf were collected by centrifugation and then purified from host cells by centrifugation through lymphoprep (Sigma). This procedure was repeated twice. Mf were collected from the pellet, washed twice in HBSS and once in worm culture medium (WCM) which comprised RPMI 1640, (Invitrogen Cat No: 52400), containing 5% heat inactivated fetal calf serum, 1% glucose, 100 units/ml penicillin and 100 µg/ml streptomycin (all Invitrogen). Mf were then dispensed into the wells of a 24-well plate to give approximately 200 Mf in 2.0 ml, using a single well for each drug concentration. All procedures were carried out using aseptic techniques. The five novel compounds, plus GA and medium alone controls, were tested three times against Mf over the full range of concentrations.

adult female B. pahangi = experiment: Adult female worm assay in vitro (Mf output and adult viability), continuous exposure; type: cell-based, Brugia pahangi; details: initial screen 2.0 µM to 100 nM, adult female worms
Protocol: For adult worm assays, adult female B. pahangi, 3–4 months old, were incubated individually in 2.0 ml of WCM overnight in 24-well plates and pre-screened for Mf production. […] For the drug experiments, six female worms of B. pahangi for each concentration of drug were cultured individually in 24-well plates in 2.0 ml of WCM containing drug, or carrier alone (DMSO) at a concentration equal to that in the highest concentration of drug. In some experiments, GA was used as a positive control. Initially, all five compounds were tested over selected concentrations starting at 2 µM to 100 nM (see Results for details). For Hsp90 inhibitors, Mf output by individual female worms is a sensitive indicator of adult worm viability and, in most experiments, was assessed at 72 h. In addition, adult worms were examined microscopically on a daily basis for 7–10 days to determine whether lower concentrations of drugs had any effects over a longer period of incubation. Results are expressed as mean Mf output ± SD over a 72 h period. Statistical significance between groups was calculated using the Mann Whitney test with P values<0.05 being considered significant.

Brugia Hsp90 = experiment: Competition FP assay, Brugia Hsp90 (species not separated); type: binding
Protocol: as §1, §2

adult B. malayi worms = details: 48 h of drug exposure
Text: (§3) Plates were maintained for up to 10 days and the condition of adult parasites noted at regular intervals. In one experiment the effect of GA on Mf output by adult B. malayi worms was compared with B. pahangi. B. malayi worms were kindly provided by Prof. R. Maizels (University of Edinburgh). […] In all in vitro experiments, plates were viewed daily and the motility and condition of the parasites noted by two independent observers, of whom one was unaware of the contents of the well.

adult B. pahangi worms = details: 48 h of drug exposure
Text: as §3

recombinant human Hsp90α = molecular target: T2, recombinant human Hsp90α (Homo sapiens, UniProt P07900); experiment: Competition FP assay (displacement of Cy3B-GA), human Hsp90α; type: binding
T2 construct: purchased Enzo Life Sciences
Protocol: as §1
as §2, with “Free Cy3B-GA (mP set to 50) and buffer only (background) wells were included as controls on each plate.” left out

[2] = FP assay, best fit (95% confidence intervals), read-out: B. pahangi IC50
[3] = best fit (95% confidence intervals), read-out: B. malayi IC50
[4] = read-out: B. malayi IC50, best fit (95% confidence intervals)

| SMILES | IC50 (B. pahangi Hsp90; [2]) | IC50 (B. malayi Hsp90; [3]) | IC50 (B. malayi Hsp90; [4]) | concentration with significant effect on Mf output (adult female B. pahangi) | further results |
| --- | --- | --- | --- | --- | --- |
| C=CCNC1=C2C[C@@H](C)C[C@H](OC)[C@H](O)[C@@H](C)/C=C(\C)[C@H](OC(N)=O)[C@@H](OC)/C=C\C=C(/C)C(=O)NC(=CC1=O)C2=O [17-AAG] | 0.008 µM | 0.0025 µM | – | – | – |
| COc1c(C)cnc(Cn2cnc3c(Cl)nc(N)nc32)c1C [BIIB021] | – | – | 0.014 µM | 2000 nM | IC50 (B. pahangi Hsp90): 0.016 µM; concentration active on Mf ([1]; 7 days, tested 4.0 µM to 0.976 nM): 4.0 µM; % death by day 7 ([1]; 4.0 µM): 100%; effect of lower concentrations on Mf ([1]; 7 days): affected worm motility but did not kill the worms |
| Oc1cc(O)c(-c2noc3ccc(NCCN4CCOCC4)cc23)cc1Cl [CAY10607] | 0.0016 µM | 0.016 µM | – | – | higher affinity for B. pahangi Hsp90 compared to B. malayi Hsp90 (Brugia Hsp90): 10 fold |
| CCc1cc(-c2n[nH]c(C)c2-c2ccc3c(c2)OCCO3)c(O)cc1O [CCT018159] | 0.24 µM | 0.33 µM | – | – | – |
| COC1=C2C[C@@H](C)C[C@H](OC)[C@H](O)[C@@H](C)/C=C(\C)[C@H](OC(N)=O)[C@@H](OC)/C=C\C=C(/C)C(=O)NC(=CC1=O)C2=O [Geldanamycin] | – | – | 0.012 µM | – | % death by day 7 ([1]; 31.25 nM, listed as GA): 90%; reduction in Mf output (adult B. malayi worms; 1.0 µM): 74%; reduction in Mf output (adult B. malayi worms; 2.0 µM): 93%; reduction in Mf output (adult B. pahangi worms; 1.0 µM): 78%; reduction in Mf output (adult B. pahangi worms; 2.0 µM): 92% |
| CCNC(=O)c1cc2c(-c3cc(OCCN4CCCC4)c(Cl)cc3Cl)nc(N)nc2s1 [NVP-BEP800] | – | – | 0.0087 µM | ≤ 100 nM | IC50 (recombinant human Hsp90α): 0.013 µM; IC50 (B. pahangi Hsp90): 0.0069 µM; IC50 (Brugia Hsp90; read-out: IC50 for binding to Brugia Hsp90): ~0.007 µM; EC50 ([1]; Brugia pahangi, 168 h, read-out: EC50 against Mf viability): ~0.25 µM; % death by day 7 ([1]; 500 nM): majority of Mf; effect of lower concentrations on Mf ([1]; 7 days): affected Mf motility but did not kill substantial numbers of worms |
| CC(C)NCCCn1c(Sc2cc3c(cc2I)OCO3)nc2c(N)ncnc21 [PU-H71] | 0.017 µM | 0.027 µM | – | – | – |
| CC1(C)CC(=O)c2c(C(F)(F)F)nn(-c3ccc(C(N)=O)c(N[C@H]4CC[C@H](O)CC4)c3)c2C1 [SNX-2112] | – | – | 0.02 µM | 500 nM | IC50 (B. pahangi Hsp90): 0.015 µM; condition of Mf [1]: very sluggish but still alive |
| CC1(C)CC(=O)c2c(C(F)(F)F)nn(-c3ccc(C(N)=O)c(N[C@H]4CCC[C@@H]4O)c3)c2C1 [SNX-9203] | 0.01 µM | 0.011 µM | – | ≤ 100 nM | IC50 (recombinant human Hsp90α; FP assay, best fit (95% confidence intervals), read-out: HsHsp90α IC50): 0.0038 µM; condition of Mf [1]: most worms were alive but were much less motile than controls; % death by day 7 ([1]; 500 nM): 90% |
| CCNC(=O)c1[nH]nc(-c2cc(Cl)c(O)cc2O)c1-c1ccc(OC)cc1 [VER-49009] | 0.011 µM | 0.014 µM | – | – | – |
| CCNC(=O)c1noc(-c2cc(Cl)c(O)cc2O)c1-c1ccc(OC)cc1 [VER-50589] | 0.00054 µM | 0.0012 µM | – | – | – |
